Laboratory results published in article PMC5654968 (NPJ Systems Biology and Applications, 2017).
Read-outs that look alike come from different tables or passages of the source.

Legend:
[1] = Plasma PK of major maoto compounds by LC-MS/MS after oral administration of maoto; type: in vivo, rat
Description: 1 (7:00-19:00). Rats were maintained and used for the experiments in accordance
2 with the Guidelines for the Care and Use of Laboratory Animals of Tsumura &
3 CO. All experimental procedures were carried out upon approval from the
4 Laboratory Animal Committee of Tsumura & CO.
8 administered to 16-h fasted rats (n=3). […]
14 and 4 g/10mL/kg) were determined by LC-MS/MS. Based on a literature search,
16 amygdalin, prunasin, scopoletin, l-ephedrine, d-pseudoephedrine,
1 Plasma PK data were analyzed by noncompartmental modeling using
2 Phoenix WinNonlin (version 6.3, Certara L.P., St. Louis, MO, USA) to determine
3 various PK constants including Cmax, tmax, t1/2, and AUC0–last. The t1/2 was divided
4 by loge2/ke, where ke is the rate constant of terminal elimination (at least three
5 data points on the descending linear limb). […]

[2] = type: in vivo, rat
Description: Distilled water and saline were administered as vehicle to rats in each control group. […] Plasma cytokine levels were measured by ELISA or multiplex immunoassay; common metabolites and lipid mediators were analyzed by GC-MS/MS and LC-MS/MS, respectively.
Pathway maps of lipid mediators were created by using CellDesigner 4.4 software (http://www.celldesigner.org). We evaluated the effects of the treatments on specific lipid mediators and categorized them according to COX, CYP and LOX pathways by Fisher’s exact test. The proinflammatory and anti-inflammatory indices were analyzed as described by Tam et al. with modification.[22]

[3] = Sprague-Dawley, rat, plasma, po, 1 g/kg
[4] = Sprague-Dawley, rat, plasma, po, 1 g/kg, read-out: Cmax
[5] = Sprague-Dawley, rat, plasma, po, 1 g/kg, read-out: Tmax
[6] = Sprague-Dawley, rat, plasma, po, 2 g/kg
[7] = Sprague-Dawley, rat, plasma, po, 2 g/kg, read-out: Cmax
[8] = Sprague-Dawley, rat, plasma, po, 2 g/kg, read-out: Tmax
[9] = Sprague-Dawley, rat, plasma, po, 4 g/kg
[10] = Sprague-Dawley, rat, plasma, po, 4 g/kg, read-out: Cmax
[11] = Sprague-Dawley, rat, plasma, po, 4 g/kg, read-out: Tmax
[12] = PM/P (polyI:C+maoto vs polyI:C), 2h
[13] = PM/P (polyI:C+maoto vs polyI:C), 4h

CC(C(O)c1ccccc1)N(C)C (racemic) [dl-Methylephedrine]
AUC(0-t) [1, 3]: 18.7 ng·h/mL
half-life [1, 3]: 358 min
Cmax [1, 4]: 16.6 ng/mL
Tmax [1, 5]: 15 min
AUC(0-t) [1, 6]: 46 ng·h/mL
half-life [1, 6]: 119 min
Cmax [1, 7]: 22.5 ng/mL
Tmax [1, 8]: 15 min
AUC(0-t) [1, 9]: 94.9 ng·h/mL
half-life [1, 9]: 690 min
Cmax [1, 10]: 37 ng/mL
Tmax [1, 11]: 15 min

O=c1ccc2ccc(O)cc2o1 [7-hydroxycoumarin]
detection in rat plasma by targeted LC-MS/MS ([1]; oral maoto 2 g/kg): not detected
AUClast ([1]; rat plasma, oral maoto 1 g/kg): BQL
Cmax ([1]; rat plasma, oral maoto 1 g/kg): BQL
AUClast ([1]; rat plasma, oral maoto 2 g/kg): BQL
Cmax ([1]; rat plasma, oral maoto 2 g/kg): BQL
AUClast ([1]; rat plasma, oral maoto 4 g/kg): BQL
Cmax ([1]; rat plasma, oral maoto 4 g/kg): BQL

O=C(O)CCC/C=C\C/C=C\C/C=C\C/C=C\CCCCCO [20-HETE]
log2FC of plasma level ([2]; M/C (maoto vs control), 2h): 0.51
log2FC of plasma level ([2]; M/C (maoto vs control), 4h): -0.20
log2FC of plasma level ([2]; P/C (polyI:C vs control), 2h): -0.23
log2FC of plasma level ([2]; P/C (polyI:C vs control), 4h): 0.52
log2FC of plasma level [2, 12]: 0.70
log2FC of plasma level [2, 13]: 0.06

O=C(O)CCC/C=C\C/C=C\C/C=C\C/C=C\CCCCC(=O)O [20-carboxy-AA]
log2FC of plasma level ([2]; M/C (maoto vs control), 2h): 0.40
log2FC of plasma level ([2]; M/C (maoto vs control), 4h): 0.17
log2FC of plasma level ([2]; P/C (polyI:C vs control), 2h): 0.03
log2FC of plasma level ([2]; P/C (polyI:C vs control), 4h): 0.32
log2FC of plasma level [2, 12]: 0.28
log2FC of plasma level [2, 13]: 0.00

Oc1cc(O)c2c(c1)O[C@H](c1ccc(O)c(O)c1)[C@@H](O)C2 [(+)-Catechin]
AUClast ([1]; rat plasma, oral maoto 1 g/kg): BQL
Cmax ([1]; rat plasma, oral maoto 1 g/kg): BQL
AUClast ([1]; rat plasma, oral maoto 2 g/kg): 0.111 ng·h/mL
Cmax ([1]; rat plasma, oral maoto 2 g/kg): 0.443 ng/mL
Tmax ([1]; rat plasma, oral maoto 2 g/kg): 60 min
AUClast ([1]; rat plasma, oral maoto 4 g/kg): 1.71 ng·h/mL
Cmax ([1]; rat plasma, oral maoto 4 g/kg): 3.75 ng/mL
Tmax ([1]; rat plasma, oral maoto 4 g/kg): 15 min

CCCCC/C=C\C/C=C\C/C=C\C/C=C\CCCC(=O)O [AA, arachidonic acid]
log2FC of plasma level ([2]; M/C (maoto vs control), 2h): 0.19
log2FC of plasma level ([2]; M/C (maoto vs control), 4h): -0.02
log2FC of plasma level ([2]; P/C (polyI:C vs control), 2h): 0.12
log2FC of plasma level ([2]; P/C (polyI:C vs control), 4h): 0.14
log2FC of plasma level [2, 12]: -0.10
log2FC of plasma level [2, 13]: -0.04

N#C[C@H](O[C@@H]1O[C@H](CO[C@@H]2O[C@H](CO)[C@@H](O)[C@H](O)[C@H]2O)[C@@H](O)[C@H](O)[C@H]1O)c1ccccc1 [Amygdalin]
AUC(0-t) [1, 3]: 346 ng·h/mL
half-life [1, 3]: 78.6 min
Cmax [1, 4]: 101 ng/mL
Tmax [1, 5]: 15 min
AUC(0-t) [1, 6]: 1520 ng·h/mL
half-life [1, 6]: 56.2 min
Cmax [1, 7]: 653 ng/mL
Tmax [1, 8]: 60 min
AUC(0-t) [1, 9]: 7610 ng·h/mL
half-life [1, 9]: 148 min
Cmax [1, 10]: 5250 ng/mL
Tmax [1, 11]: 15 min

O=C(O)/C=C/c1ccccc1 [Cinnamic acid]
AUC(0-t) [1, 3]: 624 ng·h/mL
Cmax [1, 4]: 1060 ng/mL
AUC(0-t) [1, 6]: 2060 ng·h/mL
half-life [1, 6]: 78 min
Cmax [1, 7]: 1280 ng/mL
AUC(0-t) [1, 9]: 5750 ng·h/mL
half-life [1, 9]: 98.4 min
Cmax [1, 10]: 2120 ng/mL

CC/C=C\C/C=C\C/C=C\C/C=C\C/C=C\C/C=C\CCC(=O)O [DHA, docosahexaenoic acid]
log2FC of plasma level ([2]; M/C (maoto vs control), 2h): 0.46
log2FC of plasma level ([2]; M/C (maoto vs control), 4h): -0.10
log2FC of plasma level ([2]; P/C (polyI:C vs control), 2h): 0.22
log2FC of plasma level ([2]; P/C (polyI:C vs control), 4h): 0.09
log2FC of plasma level [2, 12]: 0.05
log2FC of plasma level [2, 13]: 0.03

CC/C=C\C/C=C\C/C=C\C/C=C\C/C=C\CCCC(=O)O [EPA, eicosapentaenoic acid]
log2FC of plasma level ([2]; M/C (maoto vs control), 2h): 0.56
log2FC of plasma level ([2]; M/C (maoto vs control), 4h): -0.10
log2FC of plasma level ([2]; P/C (polyI:C vs control), 2h): 0.28
log2FC of plasma level ([2]; P/C (polyI:C vs control), 4h): -0.05
log2FC of plasma level [2, 12]: 0.04
log2FC of plasma level [2, 13]: 0.03

Oc1cc(O)c2c(c1)O[C@H](c1ccc(O)c(O)c1)[C@H](O)C2 [Epicatechin]
AUC(0-t) [1, 3]: 4.24 ng·h/mL
half-life [1, 3]: 303 min
Cmax [1, 4]: 1.82 ng/mL
Tmax [1, 5]: 30 min
AUC(0-t) [1, 6]: 2.78 ng·h/mL
half-life [1, 6]: 122 min
Cmax [1, 7]: 1.95 ng/mL
Tmax [1, 8]: 15 min
AUC(0-t) [1, 9]: 6.92 ng·h/mL
half-life [1, 9]: 209 min
Cmax [1, 10]: 8.34 ng/mL
Tmax [1, 11]: 15 min

Oc1cc(O)c2c(c1)O[C@H](c1cc(O)c(O)c(O)c1)[C@H](O)C2 [Epigallocatechin]
AUC(0-t) [1, 3]: 0.457 ng·h/mL
half-life [1, 3]: 314 min
Cmax [1, 4]: 0.197 ng/mL
Tmax [1, 5]: 30 min
AUC(0-t) [1, 6]: 0.26 ng·h/mL
half-life [1, 6]: 190 min
Cmax [1, 7]: 0.103 ng/mL
Tmax [1, 8]: 30 min
AUC(0-t) [1, 9]: 0.286 ng·h/mL
half-life [1, 9]: 50 min
Cmax [1, 10]: 0.456 ng/mL
Tmax [1, 11]: 15 min
